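Cultured in 96-well plates, cells were exposed to test compound for 48 hours across five concentrations. TGI marks complete inhibition of growth.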
Tests used:
Test in all cases: DTP human tumour cell line panel, 48 h
[1] = test system: 786-0 renal
[2] = test system: A498 renal
[3] = test system: A549 NSCLC
[4] = test system: ACHN renal
[5] = test system: BT-549 breast
[6] = test system: CAKI-1 renal
[7] = test system: CCRF-CEM leukemia
[8] = test system: COLO 205 colon
[9] = test system: DU-145 prostate
[10] = test system: HCC-2998 colon
[11] = test system: HCT-116 colon
[12] = test system: HCT-15 colon
[13] = test system: HL-60(TB) leukemia
[14] = test system: HOP-62 NSCLC
[15] = test system: HS 578T breast
[16] = test system: HT29 colon
[17] = test system: IGROV1 ovarian
[18] = test system: K-562 leukemia
[19] = test system: KM12 colon
[20] = test system: LOX IMVI melanoma
[21] = test system: M14 melanoma
[22] = test system: MALME-3M melanoma
[23] = test system: MCF7 breast
[24] = test system: MDA-MB-231 breast
[25] = test system: MDA-MB-435
[26] = test system: MDA-N
[27] = test system: MOLT-4 leukemia
[28] = test system: NCI-H226 lung
[29] = test system: NCI-H23 lung
[30] = test system: NCI-H460 lung
[31] = test system: NCI-H522 lung
[32] = test system: NCI/ADR-RES ovarian
[33] = test system: OVCAR-3 ovarian
[34] = test system: OVCAR-5 ovarian
[35] = test system: OVCAR-8 ovarian
[36] = test system: PC-3 prostate
[37] = test system: RPMI-8226 leukemia
[38] = test system: RXF 393 renal
[39] = test system: SF-268 CNS
[40] = test system: SF-295 CNS
[41] = test system: SF-539 CNS
[42] = test system: SK-MEL-2 melanoma
[43] = test system: SK-MEL-28 melanoma
[44] = test system: SK-MEL-5 melanoma
[45] = test system: SK-OV-3 ovarian
[46] = test system: SN12C renal
[47] = test system: SNB-19 CNS
[48] = test system: SNB-75 CNS
[49] = test system: SW-620 colon
[50] = test system: T-47D breast
[51] = test system: TK-10 renal
[52] = test system: U251 CNS
[53] = test system: UACC-257 melanoma
[54] = test system: UACC-62 melanoma
[55] = test system: UO-31 renal
[56] = test system: EKVX NSCLC
[57] = test system: OVCAR-4 ovarian
[58] = test system: SR leukemia

## CC(C)C(/C=C/c1ccc(Cl)cc1)=N\NC(=S)NN
[1]
  TGI: > 100 µM
[2]
  TGI: > 100 µM
[3]
  TGI: > 100 µM
[4]
  TGI: 65.6 µM
[5]
  TGI: > 100 µM
[6]
  TGI: > 100 µM
[7]
  TGI: 13.7 µM
[8]
  TGI: > 100 µM
[9]
  TGI: > 100 µM
[10]
  TGI: > 100 µM
[11]
  TGI: 11.4 µM
[12]
  TGI: > 100 µM
[13]
  TGI: 30.7 µM
[14]
  TGI: > 100 µM
[15]
  TGI: 72.3 µM
[16]
  TGI: > 100 µM
[17]
  TGI: > 100 µM
[18]
  TGI: > 100 µM
[19]
  TGI: > 100 µM
[20]
  TGI: 33.7 µM
[21]
  TGI: > 100 µM
[22]
  TGI: > 100 µM
[23]
  TGI: 52.5 µM
[24]
  TGI: > 100 µM
[25]
  TGI: 85.2 µM
[26]
  TGI: > 100 µM
[27]
  TGI: > 100 µM
[28]
  TGI: 93 µM
[29]
  TGI: > 100 µM
[30]
  TGI: 41.8 µM
[31]
  TGI: 32.4 µM
[32]
  TGI: 48.1 µM
[33]
  TGI: 78 µM
[34]
  TGI: > 100 µM
[35]
  TGI: > 100 µM
[36]
  TGI: > 100 µM
[37]
  TGI: > 100 µM
[38]
  TGI: 96.6 µM
[39]
  TGI: > 100 µM
[40]
  TGI: > 100 µM
[41]
  TGI: > 100 µM
[42]
  TGI: 44.5 µM
[43]
  TGI: > 100 µM
[44]
  TGI: > 100 µM
[45]
  TGI: > 100 µM
[46]
  TGI: > 100 µM
[47]
  TGI: > 100 µM
[48]
  TGI: 91.8 µM
[49]
  TGI: > 100 µM
[50]
  TGI: > 100 µM
[51]
  TGI: > 100 µM
[52]
  TGI: > 100 µM
[53]
  TGI: 98.9 µM
[54]
  TGI: 30.5 µM
[55]
  TGI: > 100 µM

## CC1(C)CC[C@]2(C(=O)O)CC[C@]3(C)C(=CC[C@@H]4[C@@]5(C)CC[C@@H]6OC(C)(C)OC[C@@]6(C)[C@@H]5CC[C@]43C)[C@H]2C1
[1]
  TGI: 24 µM
[2]
  TGI: 51.7 µM
[4]
  TGI: 15.7 µM
[7]
  TGI: 37.1 µM
[8]
  TGI: 28.8 µM
[9]
  TGI: 31.9 µM
[56]
  TGI: 19.4 µM
[10]
  TGI: 27.5 µM
[11]
  TGI: 20.9 µM
[12]
  TGI: 13.9 µM
[13]
  TGI: 32.9 µM
[14]
  TGI: 22.9 µM
[16]
  TGI: 18.8 µM
[17]
  TGI: 30.2 µM
[18]
  TGI: 40.6 µM
[20]
  TGI: 20.7 µM
[21]
  TGI: 33.7 µM
[22]
  TGI: 25.6 µM
[24]
  TGI: 12.9 µM
[25]
  TGI: 25.6 µM
[26]
  TGI: 27 µM
[27]
  TGI: 34.3 µM
[30]
  TGI: 20 µM
[31]
  TGI: 29 µM
[32]
  TGI: > 100 µM
[33]
  TGI: 18.5 µM
[57]
  TGI: > 100 µM
[34]
  TGI: 32.2 µM
[35]
  TGI: > 100 µM
[36]
  TGI: 19.1 µM
[37]
  TGI: 66 µM
[39]
  TGI: 36.5 µM
[40]
  TGI: 27.6 µM
[41]
  TGI: 33.5 µM
[42]
  TGI: 32.6 µM
[43]
  TGI: 29.2 µM
[45]
  TGI: 91.8 µM
[46]
  TGI: 13 µM
[47]
  TGI: 96.2 µM
[48]
  TGI: 27.7 µM
[58]
  TGI: 34 µM
[49]
  TGI: 29 µM
[50]
  TGI: 38.8 µM
[51]
  TGI: 32.7 µM
[52]
  TGI: 20.4 µM
[53]
  TGI: 31.8 µM
[54]
  TGI: 25.4 µM
[55]
  TGI: 25.6 µM

## Cc1cc2nc3c(C#N)c(-c4ccccc4)cc(Nc4cccc(C(F)(F)F)c4)n3c2cc1C
[1]
  TGI: 18.6 µM
[2]
  TGI: 29.5 µM
[3]
  TGI: 16.8 µM
[4]
  TGI: 28.5 µM
[5]
  TGI: > 100 µM
[6]
  TGI: 40.2 µM
[7]
  TGI: > 100 µM
[8]
  TGI: > 100 µM
[56]
  TGI: 37.9 µM
[10]
  TGI: 14.3 µM
[11]
  TGI: 10.8 µM
[12]
  TGI: 22.3 µM
[14]
  TGI: 35.2 µM
[18]
  TGI: 1.2 µM
[19]
  TGI: > 100 µM
[20]
  TGI: > 100 µM
[21]
  TGI: 60.3 µM
[22]
  TGI: > 100 µM
[23]
  TGI: 22.5 µM
[24]
  TGI: 16.2 µM
[25]
  TGI: 30.6 µM
[26]
  TGI: 24.7 µM
[28]
  TGI: 26.5 µM
[29]
  TGI: > 100 µM
[30]
  TGI: 11.5 µM
[31]
  TGI: 30.1 µM
[32]
  TGI: 20.2 µM
[33]
  TGI: 8.41 µM
[57]
  TGI: 50.5 µM
[34]
  TGI: 47.1 µM
[35]
  TGI: > 100 µM
[36]
  TGI: 16 µM
[37]
  TGI: > 100 µM
[38]
  TGI: 22.9 µM
[39]
  TGI: 61.2 µM
[40]
  TGI: 44.6 µM
[41]
  TGI: 13.6 µM
[42]
  TGI: 12.7 µM
[43]
  TGI: 50.6 µM
[44]
  TGI: 19.8 µM
[45]
  TGI: 44 µM
[46]
  TGI: 25.2 µM
[47]
  TGI: 80.7 µM
[48]
  TGI: 72.9 µM
[49]
  TGI: 20.7 µM
[50]
  TGI: > 100 µM
[51]
  TGI: 33.6 µM
[53]
  TGI: 54.3 µM
[55]
  TGI: 25.8 µM
